Where “and” joins values, the source holds several entries; their conditions need not be identical. Equal values may be shown once.
Tests used:
[1] = molecular target: T1, SF3b subcomplex (SF3B1 residues 454–1304, SF3B3, PHF5A, SF3B5) (Homo sapiens, UniProt O75533+Q7RTV0); experiment: Microscale thermophoresis (MST) compound binding to SF3b subcomplex; conditions: SF3b subcomplex bound to NTA-647 fixed at 10 nM
T1 construct: SF3B1 was limited to the HEAT repeat domain from residues 454–1304 and cloned in-frame with an N-terminal Flag tag; Truncated SF3B1 and full-length SF3B3, PHF5A, and SF3B5 were synthesized; made in house; host or cells: SF21 insect cells (baculovirus, pFastBac1)
Description: The four-protein complex composed of the HEAT repeats of SF3B1 (residues 454–1304) as well as full-length SF3B3, SF3B5, and PHF5A was coexpressed and purified from insect cells. This complex is necessary and sufficient for compound binding in a scintillation proximity assay (SPA) format ([Teng et al. 2017]).
The SF3b subcomplex was first titrated against a fixed concentration (25 nM) of fluorescent label (NTA-647) to determine the optimal concentrations of protein and label for the MST experiment. After 15 min of incubation at room temperature, samples were loaded into Monolith NT.115 capillaries, and MST analysis was performed using a Monolith NT.115Pico. […] For subsequent compound-binding experiments, the SF3b subcomplex bound to NTA-647 was fixed at 10 nM, and the compound was titrated from 50 µM to 3 pM. After 15 min of incubation, samples were loaded into capillaries, and analysis was performed as described previously.
Binding of E7107 to SF3b 4-protein complex by MicroScale Thermophoresis (MST). The complex is
labeled with the fluorescent dye NTA-647 and kept constant at 10 nM. E7107 was titrated and a KD of
3.6 nM was determined for the interaction.
(1 picture or pasted object on this page, not shown here)

[2] = system: splicing of Ad2.2 pre-mRNA substrate; experiment: In vitro splicing (IVS) assay, Ad2.2 substrate, HeLa S3 nuclear extracts, RT-qPCR; assay type: biochemical, human
Description: A substrate competitive mechanism of action (MOA) would predict that weaker pre-mRNA substrates would be easier to inhibit than stronger substrates. To date, it has not been possible to evaluate substrate competition using traditional steady-state conditions because splicing reactions are thought to be single-turnover events in vitro, and therefore it is not possible to measure a KM for the pre-mRNA. […] Specifically, we engineered the strong in vitro splicing substrate Ad2.1 by enhancing the U2 snRNP base-pairing around the BPA found in the Ad2 substrate. We then engineered a weaker substrate, Ad2.2, by adding a decoy BPS lacking an extrahelical adenosine (Ad2.2) (Fig. 5A; Supplemental Vector NTI files; [Corrionero et al. 2011]). […] We then evaluated E7107 and several chemical probes to better understand their mechanism.
Figure 5. […] (A) Base-pairing logic for IVS substrates. (BPRS) Branch point recognition sequence in U2 snRNA; (BPS) the BPS in the pre-mRNA. The Ad2 gene BPS sequence (UACUUAU) was modified (UACUAAU) to strengthen the U2 base-pairing interactions flanking the BPA, leading to the Ad2.1 substrate (BPA in red). The Ad2.2 sequence has the same BPS as Ad2 but also contains a 5′ decoy BPS sequence (lacking an extrahelical adenine) that can base-pair with the BPRS. The decoy BPS and suboptimal BPS overlap, which gives U2 at least two possibilities for possible base pairing, as indicated. […] (B) RT-qPCR time-course data showing product formation over time. […] (C) Representative IC50 curves for compound 6 using the two different substrates (Ad2.1 and Ad2.2).
The Ad2-derived ([Pellizzoni et al. 1998]) sequence was cloned into the pGEM-3Z vector (Promega) using 5′ EcoRI and 3′ XbaI restriction sites. The Ad2 variant (Ad2.2) ([Seiler et al. 2018]) was cloned into pcDNA3.1(+) vector (Promega) using the same restriction sites. The plasmids were linearized using XbaI and used as DNA templates in the in vitro transcription reactions. The FtzΔi intron-less plasmid ([Luo and Reed 1999]) was linearized using EcoRI. All RNAs were in vitro transcribed and then purified using MegaScript T7 and MegaClear kits, respectively (Invitrogen). For splicing reactions used with the Ad2.2 substrate, […] reactions were prepared using 8 µg of nuclear extracts prepared from HeLa S3, a saturating excess of 2 ng of pre-mRNA substrate, 0.2 ng of FTZΔi, and varying concentrations of compounds or DMSO.

[3] = molecular target: T2, wild-type mini-SF3b complex (4-protein SF3b complex) (Homo sapiens, UniProt O75533+Q7RTV0); experiment: Scintillation proximity assay (SPA) competition with 3H-labeled pladienolide probe; assay type: binding; conditions: competition with 10 nM 3H-labeled pladienolide probe, 25 nM protein; read-out: SPA IC50
T2 construct: SF3B1 was limited to the HEAT repeat domain from residues 454–1304 and cloned in-frame with an N-terminal Flag tag; Truncated SF3B1 and full-length SF3B3, PHF5A, and SF3B5 were synthesized; made in house; host or cells: SF21 insect cells (baculovirus, pFastBac1)
Description: To further validate the pose of the compound, we analyzed the activity of several related chemical probes using the SPA with the purified protein complex ([Teng et al. 2017]). The SPA is formatted as a competition assay in which the purified protein complex is captured on a bead containing scintillant, incubated with test compounds over a dose response, and then competed off with a fixed concentration of ^3H-Plad compound. IC50 curves are then measured from the resulting light emitted from the bead (Table 1; Supplemental Fig. S4). In addition, we tested the probes in viability assays in two engineered cell lines: HCT116-PHF5A^WT and the sensitization line HCT116-PHF5A^R38C (Table 1; Supplemental Fig. S5). This facilitates profiling of chemical probe activity in the PHF5A background (wild type and mutant). The relative expression levels were further confirmed by Western blot analysis (Supplemental Fig. S5).
Batch immobilization of the anti-Flag antibody (Sigma) to the anti-mouse PVT SPA scintillation beads (PerkinElmer) was prepared as follows. For every 1.5 mg of beads, 10 µg of antibody was prepared in 150 µL of PBS. The antibody–bead mixture was incubated for 30 min at room temperature and centrifuged at 18,000g for 5 min. One-hundred-fifty microliters of PBS was used to resuspend every 1.5 mg of antibody–bead mixture. The aforementioned mini-SF3b complex was tested for ^3H-labeled pladienolide probe binding ([Kotake et al. 2007]). One-hundred microliters of binding reactions was prepared with […] of bead slurry and 0 or 50 nM protein in buffer (20 mM HEPES at pH 8, 200 mM KCl, 5% glycerol). The mixture was incubated for 30 min, and varying concentrations of ^3H-labeled pladienolide probe were added. The mixture was incubated for 30 min, and luminescence signals were read using a MicroBeta2 plate counter (PerkinElmer). Compound competition studies were performed with the wild-type mini-SF3b complex. One-hundred microliters of binding reactions was prepared with 50 µL of bead slurry, 25 nM protein in buffer, and compounds at varying concentrations. After 30 min of preincubation, 10 nM ^3H-labeled pladienolide probe was added. The reactions were incubated for 30 min, and luminescence signals were read.
The Scintillation proximity assay (SPA) competition assay with 10 nM 3H tracer for different Pladienolide analogs binding to the 4-protein SF3b complex. Error bars represent STD for 2 or more measurements. Red = E7107, Orange = PladD, Purple = PladF, Green = compound 2, red = compound 3, gray = compound 4, black = compound 5, blue = compound 6. […]

T1 sequence (O75533 454-1304): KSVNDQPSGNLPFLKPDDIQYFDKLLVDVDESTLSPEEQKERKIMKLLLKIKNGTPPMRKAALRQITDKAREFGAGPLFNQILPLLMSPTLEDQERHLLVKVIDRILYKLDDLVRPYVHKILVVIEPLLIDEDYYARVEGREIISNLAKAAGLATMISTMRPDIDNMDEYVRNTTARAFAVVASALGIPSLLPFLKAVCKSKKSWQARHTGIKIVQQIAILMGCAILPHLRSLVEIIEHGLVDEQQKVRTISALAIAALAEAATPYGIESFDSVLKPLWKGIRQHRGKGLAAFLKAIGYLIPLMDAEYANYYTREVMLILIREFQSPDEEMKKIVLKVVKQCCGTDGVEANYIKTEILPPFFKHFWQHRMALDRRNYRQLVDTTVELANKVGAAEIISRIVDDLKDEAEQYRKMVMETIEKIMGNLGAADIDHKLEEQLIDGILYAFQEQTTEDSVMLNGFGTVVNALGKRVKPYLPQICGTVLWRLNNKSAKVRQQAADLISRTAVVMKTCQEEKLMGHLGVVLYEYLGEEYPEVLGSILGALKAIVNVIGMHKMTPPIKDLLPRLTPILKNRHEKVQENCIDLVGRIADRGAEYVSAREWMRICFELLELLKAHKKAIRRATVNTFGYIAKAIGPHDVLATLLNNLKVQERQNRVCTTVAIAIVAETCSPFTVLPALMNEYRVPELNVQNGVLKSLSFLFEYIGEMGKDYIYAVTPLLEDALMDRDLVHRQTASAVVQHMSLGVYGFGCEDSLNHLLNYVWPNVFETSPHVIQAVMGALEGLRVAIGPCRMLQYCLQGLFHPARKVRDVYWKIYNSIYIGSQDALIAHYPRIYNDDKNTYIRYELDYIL
T1 sequence (Q9BWJ5 whole entry, further chain, the tested form may be a part): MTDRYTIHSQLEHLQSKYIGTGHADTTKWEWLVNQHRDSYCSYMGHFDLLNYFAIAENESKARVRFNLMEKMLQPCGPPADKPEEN
T1 sequence (Q7RTV0 whole entry, the tested form may be a part): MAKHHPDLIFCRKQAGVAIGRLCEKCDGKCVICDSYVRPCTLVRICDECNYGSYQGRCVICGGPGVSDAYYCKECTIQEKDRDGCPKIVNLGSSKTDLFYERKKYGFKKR
T1 sequence (Q15393 whole entry, further chain, the tested form may be a part): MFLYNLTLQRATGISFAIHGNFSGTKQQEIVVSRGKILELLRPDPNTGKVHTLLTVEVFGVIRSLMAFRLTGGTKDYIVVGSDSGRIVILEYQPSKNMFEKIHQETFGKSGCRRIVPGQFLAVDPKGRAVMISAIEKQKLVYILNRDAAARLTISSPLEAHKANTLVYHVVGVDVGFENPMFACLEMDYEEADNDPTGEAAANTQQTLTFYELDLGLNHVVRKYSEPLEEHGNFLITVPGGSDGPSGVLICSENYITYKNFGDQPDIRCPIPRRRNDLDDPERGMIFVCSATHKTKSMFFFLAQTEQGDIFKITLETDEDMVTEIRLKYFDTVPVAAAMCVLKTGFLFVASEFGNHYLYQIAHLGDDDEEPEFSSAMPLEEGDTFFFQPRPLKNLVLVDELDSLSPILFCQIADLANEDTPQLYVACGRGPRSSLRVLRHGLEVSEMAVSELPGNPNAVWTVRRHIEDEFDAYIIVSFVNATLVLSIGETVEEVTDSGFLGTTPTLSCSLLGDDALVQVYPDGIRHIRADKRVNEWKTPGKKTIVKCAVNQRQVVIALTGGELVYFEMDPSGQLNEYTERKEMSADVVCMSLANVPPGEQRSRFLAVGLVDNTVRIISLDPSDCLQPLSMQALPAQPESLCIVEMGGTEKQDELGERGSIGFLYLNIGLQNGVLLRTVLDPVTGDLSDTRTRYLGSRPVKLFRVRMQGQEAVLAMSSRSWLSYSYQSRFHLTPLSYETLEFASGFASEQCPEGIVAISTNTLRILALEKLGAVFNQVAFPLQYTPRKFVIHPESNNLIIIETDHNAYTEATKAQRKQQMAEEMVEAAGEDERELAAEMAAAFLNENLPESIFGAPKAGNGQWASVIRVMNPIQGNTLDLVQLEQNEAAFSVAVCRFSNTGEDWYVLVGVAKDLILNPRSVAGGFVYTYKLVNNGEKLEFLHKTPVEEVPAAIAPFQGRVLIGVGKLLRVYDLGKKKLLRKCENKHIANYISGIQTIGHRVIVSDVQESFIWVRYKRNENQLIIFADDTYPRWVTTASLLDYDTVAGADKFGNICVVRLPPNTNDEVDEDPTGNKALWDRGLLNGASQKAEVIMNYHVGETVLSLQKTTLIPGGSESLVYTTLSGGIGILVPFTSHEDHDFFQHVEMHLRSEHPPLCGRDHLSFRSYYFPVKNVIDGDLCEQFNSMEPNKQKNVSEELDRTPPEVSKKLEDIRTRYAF
T2 sequence (Q7RTV0 whole entry, the tested form may be a part): as the sequence (Q7RTV0 whole entry, the tested form may be a part) above
T2 sequence (Q15393 whole entry, further chain, the tested form may be a part): as the sequence (Q15393 whole entry, further chain, the tested form may be a part) above
T2 sequence (O75533 454-1304): as the sequence (O75533 454-1304) above
T2 sequence (Q9BWJ5 whole entry, further chain, the tested form may be a part): as the sequence (Q9BWJ5 whole entry, further chain, the tested form may be a part) above

**Q.** CCC(O)C(C)C1OC1CC(C)(O)C=CC=C(C)C1OC(=O)CC(O)CCC(C)(O)C(OC(=O)N2CCN(C3CCCCCC3)CC2)C=CC1C (stereo not shown) [Compound E7107] was tested. Which Kd [1] did it give?
**A.** 3.6 nM and ~3.6 nM

**Q.** What about the “inhibition of strong and weak IVS substrates” value ([2]; Ad2.1 and Ad2.2 substrates compared) of the same compound?
**A.** inhibit both the strong and weak substrates equally well

**Q.** And the IC50 ([2]; Ad2.2 (weak) substrate)?
**A.** 9.9 nM

**Q.** And the IC50 [3]?
**A.** 67 nM
